Publication PMC5833777, “Lup-20(29)-en-3β,28-di-yl-nitrooxy acetate affects MCF-7 proliferation through the crosstalk between apoptosis and autophagy in mitochondria” (Cell Death & Disease, 2018)
Values belong to the compound of their own block, whether it stands above or below them.

Key:
MCF-7 cells = test: Western blots of MCF-7 cell extracts; format: cell-based
Experimental: MCF-7 cells treated with NBT and/or CQ for 24 h were harvested, washed twice with cold PBS, and then fractionated into cytosolic and mitochondrial fractions by using a Qproteome Mitochondria Isolation Kit (Qiagen, Germany) following the manufacturer’s protocol.
MCF-7 cells treated with NBT and/or CQ for 24 h were lysed in cell lysis buffer containing 1% PMFS for 30 min on ice and centrifuged at 12,000 r.p.m. for 5 min at 4 °C. Then, the protein was quantified by using a BCA Protein Assay Kit (BestBio, Shanghai, China).
Total cell extracts (50 μg) were separated by using SDS-PAGE at 120 V for 1.5 h at room temperature and then eletrotransferred onto PVDF membranes at 300 mA for 1 h at 4 °C. The membranes were washed three times with TBST each for 10 min, blocked with 5% nonfat dry milk in TBST for 2 h at room temperature, rinsed with TBST, incubated with primary antibodies overnight at 4 °C, washed three times with TBST, incubated with HRP-linked anti-IgG for 1 h at room temperature, and then washed three times as before. At the same time, β-actin, GAPDH, and tubulin acted as the control. Afterward, the chemiluminescent bands were analyzed using Image Lab™ Software on ChemiDoc XRS + (Bio-Rad, USA).

MCF-7 xenograft = test: In vivo antitumor efficacy on MCF-7 tumor-bearing nude mice (tumor volume, H&E, TUNEL); design: species or system female BALB/c nude mice; details: for tumor growth compared with the control: i.p. daily for 11 days, NBT 100 mg/kg, BT 100 mg/kg, 5-FU 22 mg/kg
Excerpt: Representative images are shown at ×400 magnification. Scale bar: 100 μm. Data represent mean ± SD of three independent experiments
Tumor samples were fixed in 10% formalin, paraffinized, and sectioned into 4-μm sections, which were stained with H&E according to standard methods.
Tumor samples were fixed in 10% formalin, paraffinized, and sectioned into 4-μm sections, which were stained with FITC-POD according to standard methods.

[1] = for coefficient of the heart, liver, spleen, and kidney to the body weight: after 11 days of exposure; for body weight changes: during 11 days of exposure; for ALT/GPT / AST/GOT / BUN / CRE / UA: serum, after 11 days i.p., N = 8, mean ± S
A549 = test: CCK-8 cell proliferation assay, A549; format: cell-based; details: Homo sapiens, 48 h
Experimental: (§1) Fig. 2 NBT and BT induced cell death in HeLa, A549, and MCF-7 cell lines. a Effects of BT on the proliferation of MCF-7, HeLa, and A549 cells. Cells (5 × 10^3) were seeded in a 96-well plate for 24 h and then treated with increased concentrations of BT for 48 h. The cell viability was evaluated by using CCK-8 assay. b MCF-7, HeLa, and A549 cells (5 × 10^3) were seeded in a 96-well plate for 24 h and were treated with known concentrations of NBT for 48 h. c MCF-7 cells (5 × 10^3) were seeded in a 96-well plate for 24 h and then were treated with known concentrations of NBT for 24 or 48 h. The cell viability was evaluated by using CCK-8 assay. d MCF10A, BEAS-2B, and L-02 cells (5 × 10^3) were seeded in a 96-well plate for 24 h and were treated with 6, 12, and 24 μM concentrations of NBT for 24 or 48 h. The cell viability was evaluated by using CCK-8 assay.
(§2) MCF-7, HeLa, A549, BEAS-2B, MCF10A, and L-02 cell lines were purchased from the American Type Culture Collection (ATCC) (Rockville, Maryland, USA). […]
(§3) Cells were grown in 96-well plates at a density of 5 × 10^3 cells/100 μL for 24 h, and then various concentrations of BT or NBT were added for 24 or 48 h. […] Optical density was measured at 450 nm by using a multimode plate reader (PerkinElmer EnSpire, USA).

MCF-7 = test: CCK-8 cell proliferation assay, MCF-7; format: cell-based; details: Homo sapiens, MCF7, 48 h
Experimental: as §1, §2, §3

HeLa = test: CCK-8 cell proliferation assay, HeLa; format: cell-based; details: Homo sapiens, 48 h
Experimental: as §1, §2, §3

[2] = MCF-7, 24 h, NBT 6-24 μM, Rapa 0.25 μM, NBT 12 μM + CQ 40 μM

Structure (SMILES): Cn1cnc(N)c2ncnc1-2 [3-MA, 3-methyladenine, reference compound]
effect on NBT-induced caspase-9 and PARP activation (MCF-7 cells; MCF-7, 3-MA 5 mM with NBT 12 μM, 24 h): inhibit

BUN [1]: 9.26 ± 2.23 mmol/L
CRE [1]: 32.95 ± 6.29 µmol/L
UA [1]: 84.52 ± 6.63 µmol/L
Structure (SMILES): O=c1[nH]cc(F)c(=O)[nH]1 [5-FU, 5-fluorouracil]
tumor growth compared with the control (MCF-7 xenograft): significant reduction in tumor growth
coefficient of the heart, liver, spleen, and kidney to the body weight [1]: no significant differences
body weight changes [1]: no significant differences
ALT/GPT [1]: 95.48 ± 12.86 IU/L
AST/GOT [1]: 245.71 ± 47.15 IU/L

Structure (SMILES): C=C(C)[C@@H]1CC[C@]2(CO)CC[C@]3(C)[C@H](CC[C@@H]4[C@@]5(C)CC[C@H](O)C(C)(C)[C@@H]5CC[C@]43C)[C@@H]12 [BT, Betulin]
inhibition at 500 µM (A549): ≤ 40%
inhibition at 500 µM (MCF-7): ≤ 40%
HE staining of tumors (MCF-7 xenograft; 100 mg/kg i.p., 11 days): fibrosis, necrosis, and inflammatory cell infiltration
tumor growth compared with the control (MCF-7 xenograft): minimal reduction in tumor growth
IC50 (HeLa): 288 ± 12.3 µM
safety after 11 days of administration ([1]; 100 mg/kg i.p., nude mice): safe
coefficient of the heart, liver, spleen, and kidney to the body weight [1]: no significant differences
body weight changes [1]: no significant differences
ALT/GPT [1]: 106.33 ± 24.27 IU/L
AST/GOT [1]: 183.42 ± 39.98 IU/L
BUN [1]: 10.13 ± 3.04 mmol/L
CRE [1]: 45.10 ± 6.43 µmol/L
UA [1]: 130.18 ± 25.22 µmol/L

Structure (SMILES): CCN(CC)CCCC(C)Nc1ccnc2cc(Cl)ccc12 (stereo not drawn) [CQ, Chloroquine, reference compound]
p62 level increased by (MCF-7 cells; MCF-7, 40 μM, 24 h): 75%

Structure (SMILES): CO[C@H]1C[C@@H]2CC[C@@H](C)[C@@](O)(O2)C(=O)C(=O)N2CCCC[C@H]2C(=O)O[C@H]([C@H](C)C[C@@H]2CC[C@@H](O)[C@H](OC)C2)CC(=O)[C@H](C)/C=C(\C)[C@@H](O)[C@@H](OC)C(=O)[C@H](C)C[C@H](C)/C=C/C=C/C=C/1C [Rapa, Rapamycin, reference compound]
p62 level reduced by (MCF-7 cells; MCF-7, 0.25 μM alone, 24 h): 60%
Atg5 level (MCF-7 cells; [2]): increased
p62 level (MCF-7 cells; [2]): decreased
LC3B-II level (MCF-7 cells; MCF-7, 24 h, Rapa 0.25 μM, NBT 12 μM + CQ 40 μM): increased
